Measured values taken from the NIST ThermoML archive (doi:10.1021/je049888n).

What was measured:
[1] = xn = mol fraction of the nth substance listed

C1CCNCC1 [piperidine]
Conditions | surface tension liquid-gas [mN/m]
293.15 K | 30.11
298.15 K | 29.56
303.15 K | 29.09
313.15 K | 27.9
323.15 K | 27

C1CCNCC1 [piperidine] + O
surface tension liquid-gas [mN/m], [1]
Conditions | 293.15 K | 298.15 K | 303.15 K | 313.15 K | 323.15 K
x1 = 0.0076 | 57.25 | 56.85 | 56.45 | 55.56 | 54.62
x1 = 0.013 | 43.84 | 43.58 | 43.32 | 41.58 | 41.41
x1 = 0.0228 | 38.56 | 38.27 | 37.98 | 37.43 | 37.18
x1 = 0.0458 | 37.78 | 37.2 | 36.62 | 35.76 | 34.37
x1 = 0.092 | 35.44 | 34.99 | 34.54 | 33.69 | 32.61
x1 = 0.1542 | 34.34 | 34.02 | 33.7 | 32.67 | 31.8
x1 = 0.2672 | 33.9 | 33.39 | 32.88 | 32.1 | 31.26
x1 = 0.378 | 33.27 | 32.75 | 32.23 | 31.42 | 30.4
x1 = 0.5657 | 31.38 | 31.15 | 30.92 | 30.01 | 29.2
x1 = 0.7524 | 31.02 | 30.42 | 29.82 | 29.01 | 28.1
x1 = 1 | 30.11 | 29.56 | 29.09 | 27.9 | 27

C1CCNC1 [pyrrolidine]
Conditions | surface tension liquid-gas [mN/m]
293.15 K | 30.27
298.15 K | 29.75
303.15 K | 29.02
313.15 K | 27.87
323.15 K | 26.75

C1CCNC1 [pyrrolidine] + O
surface tension liquid-gas [mN/m], [1]
Conditions | 293.15 K | 298.15 K | 303.15 K | 313.15 K | 323.15 K
x1 = 0.0156 | 55.61 | 55.32 | 54.98 | 54.1 | 53.26
x1 = 0.0564 | 46.07 | 45.61 | 45.21 | 44.76 | 43.89
x1 = 0.1082 | 41.7 | 41.19 | 40.92 | 40.19 | 39.17
x1 = 0.1792 | 39.7 | 39.74 | 39 | 38.01 | 37.3
x1 = 0.3039 | 37.53 | 37.09 | 36.69 | 35.68 | 34.74
x1 = 0.4212 | 35.97 | 35.45 | 35.11 | 34.44 | 33.15
x1 = 0.5219 | 34.87 | 34.4 | 33.99 | 32.97 | 32.07
x1 = 0.6093 | 33.89 | 33.54 | 33.07 | 31.95 | 31.05
x1 = 0.6858 | 32.99 | 32.59 | 32.39 | 31.11 | 30.25
x1 = 0.7844 | 32.1 | 31.45 | 31.3 | 30.4 | 29.2
x1 = 0.9161 | 31.07 | 30.42 | 30.13 | 29.02 | 27.83
x1 = 1 | 30.27 | 29.75 | 29.02 | 27.87 | 26.75

O [water] + C1CCNC1
[1], x2 = 0
Conditions | surface tension liquid-gas [mN/m]
293.15 K | 72.7
298.15 K | 72.05
303.15 K | 71.28
313.15 K | 69.32
323.15 K | 67.88

O [water] + C1CCNCC1
[1], x2 = 0
Conditions | surface tension liquid-gas [mN/m]
293.15 K | 72.7
298.15 K | 72.05
303.15 K | 71.28
313.15 K | 69.32
323.15 K | 67.88
